The results in this text go back to patent US20250073255A1, “USE OF FA-TYPE LIPID COMPOUNDS IN PREPARATION OF NUCLEIC ACID DELIVERY REAGENT AND RELATED PRODUCT” (BEIJING BAISHIKANG PHARMACEUTICAL TECHNOLOGY (BSJPHARMA) …, priority 2021, published 2025).

The subject of the assay is C57BL/6 male mice. The assay can be described thus: In vivo delivery study of lipid nucleic acid mixture (oral gavage, RT-qPCR of PGY-sRNA-26 in tissues). Further details: species or system mouse. The note with it: for oral delivery of single-stranded sRNA nucleic acids into mouse blood / oral delivery of single-stranded sRNA nucleic acids into mouse brain tissue / oral delivery of single-stranded sRNA nucleic acids into mouse femur / oral delivery of single-stranded sRNA nucleic acids into mouse heart tissue / oral delivery of single-stranded sRNA nucleic acids into mouse intestinal tissue / oral delivery of single-stranded sRNA nucleic acids into mouse kidney tissue / oral delivery of single-stranded sRNA nucleic acids into mouse liver tissue / oral delivery of single-stranded sRNA nucleic acids into mouse lung tissue / oral delivery of single-stranded sRNA nucleic acids into mouse pancreatic tissue / oral delivery of single-stranded sRNA nucleic acids into mouse spleen tissue / oral delivery of single-stranded sRNA nucleic acids into mouse stomach tissue: 100 μg lipid:10 nmol PGY-sRNA-26, sampled after 12 hours; for oral delivery of single-stranded sRNA nucleic acids into mouse heart tissue: vs free uptake group; for oral delivery of single-stranded sRNA nucleic acids into mouse intestinal tissue: intestine; for oral delivery of single-stranded sRNA nucleic acids into mouse pancreatic tissue: pancreas. The method in brief:
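Lipid (100 μg) and 10 nmol 3'-methylated single-stranded PGY-sRNA-26 were heated at 90 °C for 15 min, then given by oral gavage to mice fasted 12 h. Controls were saline and free sRNA. Blood and tissues were taken at 12 h, and levels were measured by stem-loop RT-qPCR relative to U6.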
On the technique in general: In qPCR the cycle at which signal appears reflects the starting amount.

Regarding `CCCCCCC(=O)OC/C=C(\C)CC/C=C(\C)CCC=C(C)C` [Lipid 809, [(2E,6E)-3,7,11-trimethyldodeca-2,6,10-trienyl]heptanoate], the “oral delivery of single-stranded sRNA nucleic acids into mouse blood” value was “can effectively orally deliver”, the “oral delivery of single-stranded sRNA nucleic acids into mouse brain tissue” value is listed as “can effectively orally deliver”, the “oral delivery of single-stranded sRNA nucleic acids into mouse femur” value is “can effectively orally deliver” and the “oral delivery of single-stranded sRNA nucleic acids into mouse heart tissue” value is reported as “can effectively orally deliver”. Besides, the “oral delivery of single-stranded sRNA nucleic acids into mouse intestinal tissue” value was “can effectively orally deliver”, the “oral delivery of single-stranded sRNA nucleic acids into mouse kidney tissue” value is “can effectively orally deliver”, the “oral delivery of single-stranded sRNA nucleic acids into mouse liver tissue” value is “can effectively orally deliver” and the “oral delivery of single-stranded sRNA nucleic acids into mouse lung tissue” value is “can effectively orally deliver”. In addition, the “oral delivery of single-stranded sRNA nucleic acids into mouse pancreatic tissue” value was “can effectively orally deliver”, the “oral delivery of single-stranded sRNA nucleic acids into mouse spleen tissue” value was “can effectively orally deliver” and the “oral delivery of single-stranded sRNA nucleic acids into mouse stomach tissue” value was “can effectively orally deliver”.
Regarding `CCCCC/C=C\C/C=C\C/C=C\C/C=C\CCCC(=O)NCCN(CC)CC` [Lipid 810, (5Z,8Z,11Z,14Z)-N-[2-(diethylamino)ethyl]icosa-5,8,11,14-tetraenamide], the “oral delivery of single-stranded sRNA nucleic acids into mouse blood” value was “can effectively orally deliver”, the “oral delivery of single-stranded sRNA nucleic acids into mouse brain tissue” value was “can effectively orally deliver”, the “oral delivery of single-stranded sRNA nucleic acids into mouse femur” value is on record as “can effectively orally deliver” and the “oral delivery of single-stranded sRNA nucleic acids into mouse heart tissue” value is recorded as “can effectively orally deliver”. The “oral delivery of single-stranded sRNA nucleic acids into mouse intestinal tissue” value is given as “can effectively orally deliver”, the “oral delivery of single-stranded sRNA nucleic acids into mouse kidney tissue” value is reported as “can effectively orally deliver”, the “oral delivery of single-stranded sRNA nucleic acids into mouse liver tissue” value is on record as “can effectively orally deliver” and the “oral delivery of single-stranded sRNA nucleic acids into mouse lung tissue” value was “can effectively orally deliver”. In addition, the “oral delivery of single-stranded sRNA nucleic acids into mouse pancreatic tissue” value was “can effectively orally deliver”, the “oral delivery of single-stranded sRNA nucleic acids into mouse spleen tissue” value is listed as “can effectively orally deliver” and the “oral delivery of single-stranded sRNA nucleic acids into mouse stomach tissue” value is given as “can effectively orally deliver”. Also, the “overall delivery efficacy: delivering nucleic acids into each tissue and blood tested” value (100 μg lipid:10 nmol PGY-sRNA-26, all tissues and blood tested) is listed as “best delivery efficacy”.
Take `CCCCC/C=C\C/C=C\CCCCCCCC(=O)OCCCCCCCCCCCCCC` [Lipid 811, tetradecyl (9Z,12Z)-octadeca-9,12-dienoate]: the “oral delivery of single-stranded sRNA nucleic acids into mouse blood” value is “can effectively orally deliver”, the “oral delivery of single-stranded sRNA nucleic acids into mouse brain tissue” value is reported as “can effectively orally deliver”, the “oral delivery of single-stranded sRNA nucleic acids into mouse femur” value was “can effectively orally deliver” and the “oral delivery of single-stranded sRNA nucleic acids into mouse heart tissue” value is given as “can effectively orally deliver”. Further, the “oral delivery of single-stranded sRNA nucleic acids into mouse intestinal tissue” value is “can effectively orally deliver”, the “oral delivery of single-stranded sRNA nucleic acids into mouse kidney tissue” value is “can effectively orally deliver”, the “oral delivery of single-stranded sRNA nucleic acids into mouse liver tissue” value is “can effectively orally deliver” and the “oral delivery of single-stranded sRNA nucleic acids into mouse lung tissue” value is reported as “can effectively orally deliver”. Moreover, the “oral delivery of single-stranded sRNA nucleic acids into mouse pancreatic tissue” value is recorded as “can effectively orally deliver”, the “oral delivery of single-stranded sRNA nucleic acids into mouse spleen tissue” value was “can effectively orally deliver” and the “oral delivery of single-stranded sRNA nucleic acids into mouse stomach tissue” value is “can effectively orally deliver”.
With `CCCCC/C=C\C/C=C\CCCCCCCCOC(=O)CCCCCCCCCCCCCCCCCCC` [Lipid 812, [(9Z,12Z)-octadeca-9,12-dienyl] icosanoate], the “oral delivery of single-stranded sRNA nucleic acids into mouse blood” value is listed as “can effectively orally deliver”, the “oral delivery of single-stranded sRNA nucleic acids into mouse brain tissue” value is recorded as “can effectively orally deliver”, the “oral delivery of single-stranded sRNA nucleic acids into mouse femur” value is recorded as “can effectively orally deliver” and the “oral delivery of single-stranded sRNA nucleic acids into mouse heart tissue” value was “can effectively orally deliver”. Also, the “oral delivery of single-stranded sRNA nucleic acids into mouse intestinal tissue” value is on record as “can effectively orally deliver”, the “oral delivery of single-stranded sRNA nucleic acids into mouse kidney tissue” value is listed as “can effectively orally deliver”, the “oral delivery of single-stranded sRNA nucleic acids into mouse liver tissue” value is recorded as “can effectively orally deliver” and the “oral delivery of single-stranded sRNA nucleic acids into mouse lung tissue” value is “can effectively orally deliver”. Moreover, the “oral delivery of single-stranded sRNA nucleic acids into mouse pancreatic tissue” value is “can effectively orally deliver”, the “oral delivery of single-stranded sRNA nucleic acids into mouse spleen tissue” value is reported as “can effectively orally deliver” and the “oral delivery of single-stranded sRNA nucleic acids into mouse stomach tissue” value is “can effectively orally deliver”.
With `CCCCCC/C=C\CCCCCCCC(=O)OCCCCCCCCCCCCC` [Lipid 813, tridecyl (Z)-hexadec-9-enoate], the “oral delivery of single-stranded sRNA nucleic acids into mouse blood” value was “can effectively orally deliver”, the “oral delivery of single-stranded sRNA nucleic acids into mouse brain tissue” value was “can effectively orally deliver”, the “oral delivery of single-stranded sRNA nucleic acids into mouse femur” value is “can effectively orally deliver” and the “oral delivery of single-stranded sRNA nucleic acids into mouse heart tissue” value is recorded as “can effectively orally deliver”. The “oral delivery of single-stranded sRNA nucleic acids into mouse intestinal tissue” value is on record as “can effectively orally deliver”, the “oral delivery of single-stranded sRNA nucleic acids into mouse kidney tissue” value is “can effectively orally deliver”, the “oral delivery of single-stranded sRNA nucleic acids into mouse liver tissue” value was “can effectively orally deliver” and the “oral delivery of single-stranded sRNA nucleic acids into mouse lung tissue” value was “can effectively orally deliver”. For the same molecule, the “oral delivery of single-stranded sRNA nucleic acids into mouse pancreatic tissue” value is reported as “can effectively orally deliver”, the “oral delivery of single-stranded sRNA nucleic acids into mouse spleen tissue” value was “can effectively orally deliver” and the “oral delivery of single-stranded sRNA nucleic acids into mouse stomach tissue” value is on record as “can effectively orally deliver”.
Take `C=C(C)CCOC(=O)CCCCCCCCCCCCCCCCCCC` [Lipid 814, 3-methylbut-3-enyl icosanoate]: the “oral delivery of single-stranded sRNA nucleic acids into mouse blood” value is “can effectively orally deliver”, the “oral delivery of single-stranded sRNA nucleic acids into mouse brain tissue” value is on record as “can effectively orally deliver”, the “oral delivery of single-stranded sRNA nucleic acids into mouse femur” value is given as “can effectively orally deliver” and the “oral delivery of single-stranded sRNA nucleic acids into mouse heart tissue” value is listed as “can effectively orally deliver”. The “oral delivery of single-stranded sRNA nucleic acids into mouse intestinal tissue” value is “can effectively orally deliver”, the “oral delivery of single-stranded sRNA nucleic acids into mouse kidney tissue” value is recorded as “can effectively orally deliver”, the “oral delivery of single-stranded sRNA nucleic acids into mouse liver tissue” value was “can effectively orally deliver” and the “oral delivery of single-stranded sRNA nucleic acids into mouse lung tissue” value was “can effectively orally deliver”. Besides, the “oral delivery of single-stranded sRNA nucleic acids into mouse pancreatic tissue” value is “can effectively orally deliver”, the “oral delivery of single-stranded sRNA nucleic acids into mouse spleen tissue” value was “can effectively orally deliver” and the “oral delivery of single-stranded sRNA nucleic acids into mouse stomach tissue” value was “can effectively orally deliver”.
For `C=C(C)CCOC(=O)CCCCCCCCCCCCCCCCCCCCC` [Lipid 815, 3-methylbut-3-enyl docosanoate], the “oral delivery of single-stranded sRNA nucleic acids into mouse blood” value is “can effectively orally deliver”, the “oral delivery of single-stranded sRNA nucleic acids into mouse brain tissue” value is given as “can effectively orally deliver”, the “oral delivery of single-stranded sRNA nucleic acids into mouse femur” value was “can effectively orally deliver” and the “oral delivery of single-stranded sRNA nucleic acids into mouse heart tissue” value is reported as “can effectively orally deliver”. Further, the “oral delivery of single-stranded sRNA nucleic acids into mouse intestinal tissue” value is given as “can effectively orally deliver”, the “oral delivery of single-stranded sRNA nucleic acids into mouse kidney tissue” value was “can effectively orally deliver”, the “oral delivery of single-stranded sRNA nucleic acids into mouse liver tissue” value is “can effectively orally deliver” and the “oral delivery of single-stranded sRNA nucleic acids into mouse lung tissue” value is “can effectively orally deliver”. The “oral delivery of single-stranded sRNA nucleic acids into mouse pancreatic tissue” value is “can effectively orally deliver”, the “oral delivery of single-stranded sRNA nucleic acids into mouse spleen tissue” value is recorded as “can effectively orally deliver” and the “oral delivery of single-stranded sRNA nucleic acids into mouse stomach tissue” value is “can effectively orally deliver”.
As for `CC/C=C\CCOC(=O)[C@H](O)C(C)C` [Lipid 816, [(Z)-hex-3-enyl] (2R)-2-hydroxy-3-methylbutanoate], the “oral delivery of single-stranded sRNA nucleic acids into mouse blood” value is listed as “can effectively orally deliver”, the “oral delivery of single-stranded sRNA nucleic acids into mouse brain tissue” value was “can effectively orally deliver”, the “oral delivery of single-stranded sRNA nucleic acids into mouse femur” value is “can effectively orally deliver” and the “oral delivery of single-stranded sRNA nucleic acids into mouse heart tissue” value is reported as “can effectively orally deliver”. Also, the “oral delivery of single-stranded sRNA nucleic acids into mouse intestinal tissue” value is “can effectively orally deliver”, the “oral delivery of single-stranded sRNA nucleic acids into mouse kidney tissue” value is on record as “can effectively orally deliver”, the “oral delivery of single-stranded sRNA nucleic acids into mouse liver tissue” value is reported as “can effectively orally deliver” and the “oral delivery of single-stranded sRNA nucleic acids into mouse lung tissue” value is “can effectively orally deliver”. For the same molecule, the “oral delivery of single-stranded sRNA nucleic acids into mouse pancreatic tissue” value is reported as “can effectively orally deliver”, the “oral delivery of single-stranded sRNA nucleic acids into mouse spleen tissue” value is given as “can effectively orally deliver” and the “oral delivery of single-stranded sRNA nucleic acids into mouse stomach tissue” value is listed as “can effectively orally deliver”.
